Experiments:
[1] = system: AT11 (DNA, G4) TGGTGGTGGTTGTTGTGGTGGTGGTGGT; assay: 1H NMR titration, NOESY; details: 70 mM KCl, 20 mM potassium phosphate; pH 7.0, 90%/10% H2O/D2O, DMSO up to 3%
[2] = system: AT11 (DNA, G4) TGGTGGTGGTTGTTGTGGTGGTGGTGGT; assay: CD melting at 262 nm; details: 70 mM KCl, 20 mM potassium phosphate, pH 7.0, 2 μM DNA, 20 μM ligand
[3] = system: AT11 (DNA, G4) TGGTGGTGGTTGTTGTGGTGGTGGTGGT; assay: fluorescence titration (ligand intrinsic emission); details: 70 mM KCl, 20 mM potassium phosphate; for K d: per site
[4] = system: AT11 (DNA, G4) TGGTGGTGGTTGTTGTGGTGGTGGTGGT; assay: 1H NMR titration; details: 70 mM KCl, 20 mM potassium phosphate; pH 7.0, 90%/10% H2O/D2O; 3'-end G-quartet preferred

ΔT m [2] | K d [3] [nM] | binding ([3]; pH 7.0, 20 °C, 2 μM ligand, alternating trend, not fittable) | ΔT m ([2]; additional inflection at 87 °C) | K d ([3]; pH 7.0, 20 °C, 2 μM ligand) [nM] | K d ([3]; pH 7.0, 20 °C, 2 μM ligand, average over multiple binding events) [nM] | binding [4] | SMILES | binding [1]
+1 °C | 2000 ± 400 |  |  |  |  |  | CC[C@H]1C[C@@H]2C[C@H]3c4[nH]c5ccc(OC)cc5c4CCN(C2)[C@@H]13 | yes
+1 °C |  | yes |  |  |  |  | CN1Cc2c(ccc3c2OCO3)[C@@H]2[C@H]1c1cc3c(cc1C[C@@H]2O)OCO3 | yes
 |  |  | +3 °C | 1000 ± 700 |  |  | COc1cc2c(cc1OC)-c1c3c(cc4c1[C@H](C2)N(C)CC4)OCO3 | yes
+1 °C |  |  |  |  | 1700 ± 300 | yes | COc1ccc2c(c1O)-c1c3c(cc4c1[C@H](C2)N(C)CC4)OCO3 | 

Reference: PMC12794142 (2025)
